Usually Ki stands for a dissociation constant, usually derived from enzyme kinetics or from competition with a known ligand. Lower therefore signals tighter binding.

SMILES strings stand for the structures. Counter-ions that a name gives are not always drawn.

The experiment deals with T1, activated ROCK II (Rattus norvegicus, UniProt Q62868).
T1 construct: purchased Upstate Biotechnology 14-338
T1 sequence (Q62868 11-550 limits assumed): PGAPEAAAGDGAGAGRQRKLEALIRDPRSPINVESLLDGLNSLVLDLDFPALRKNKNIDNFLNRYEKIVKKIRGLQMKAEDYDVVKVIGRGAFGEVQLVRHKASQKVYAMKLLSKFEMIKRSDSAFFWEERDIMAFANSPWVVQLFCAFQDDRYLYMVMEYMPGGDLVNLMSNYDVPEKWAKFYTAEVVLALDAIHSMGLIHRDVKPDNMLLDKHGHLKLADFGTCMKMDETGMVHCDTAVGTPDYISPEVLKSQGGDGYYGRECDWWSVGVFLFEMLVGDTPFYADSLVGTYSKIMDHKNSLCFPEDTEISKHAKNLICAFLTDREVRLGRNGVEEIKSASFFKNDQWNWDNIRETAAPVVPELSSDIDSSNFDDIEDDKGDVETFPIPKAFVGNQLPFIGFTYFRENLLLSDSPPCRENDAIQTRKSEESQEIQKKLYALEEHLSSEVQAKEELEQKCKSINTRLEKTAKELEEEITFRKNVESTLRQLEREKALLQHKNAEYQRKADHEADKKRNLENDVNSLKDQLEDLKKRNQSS
The experiment can be described thus: Test for Evaluation of Inhibiting Activity to Rho Kinase. The class given is biochemical. Particulars: S6 Kinase Substrate Peptide, [γ-32P]ATP, 30° C. for 15 minutes, Ki=IC50/(1+S/Km). How it is done: In order to find the utility of the present invention compound, a Rho kinase inhibiting activity of the present invention compound was evaluated. The details thereof will be illustrated under the item of “Pharmacological Test (Test for Evaluation of Rho Kinase Inhibiting Activity)” in the Examples which will be mentioned later. The evaluation of the Rho kinase inhibiting activity of the present invention compound was carried out in accordance with the methods mentioned in J. Biol. Chem., 274, 32418 (1999) by Kaibuchi, et al. and mentioned in the instruction manual for use attached to the commercially available activated ROCK II [Upstate Biotechnology, Catalog No. 14-338 (5 units/50 μl)].
A. Test for Evaluation of Inhibiting Activity to Rho Kinase
In order to test the usefulness of the compounds of the present invention as a Rho kinase inhibitor, inhibiting activities of the compounds of the present invention to Rho kinase were evaluated and investigated in accordance with the methods of Kaibuchi, et al. mentioned in J. Biol. Chem., 274, 32418, 1999 and also with the methods mentioned in the instruction manual for use attached to commercially available activated ROCK II [Upstate Biotechnology, Catalog No. 14-338, (5 unite/50 μl)]. With regard to the test compounds, the compounds 5-1 to 5-73 (except the compounds 5-2, 5-9, 5-18, 5-37 and 5-38) were used.
A buffer was prepared so as to make tris(hydroxymethyl)aminomethane (Tris) (pH 7.5), 50 mM, ethyleneglycol bis(β-aminoethyl ether)-N,N,N′,N′-tetraacetic acid (EGTA), 2 mM, ethylenediaminetetraacetic acid (EDTA), 1 mM, magnesium chloride (MgCl2) 5 mM, β-glycerol phosphate, 5 mM, and dithiothreitol (DTT), 2 mM, by mixing them.
A mixed liquid of a 10 mM ATP solution with a commercially available [γ-^32P]ATP solution [NEN, Code No. NEG-002A] was diluted with the buffer to prepare a 300 μM ATP [γ-^32P]ATP solution.
A Commercially Available Activated ROCK II [Upstate Biotechnology, Catalog No. 14-338, (5 Units/50 μl)] was diluted to a concentration of 1/100 with the buffer to prepare an activated ROCK II solution.
A S6 Kinase Substrate Peptide [Upstate Biotechnology, Catalog No. 12-124,] (2 mg) was dissolved in distilled water to prepare a 1 mM substrate solution.
A test compound was dissolved in 10% aqueous dimethyl sulfoxide solution.
1) The test compound solution is placed in a microtube.
2) The 300 μM ATP [γ-^32P]ATP solution is added to the microtube followed by cooling to 4° C.
3) After that, a permanently activated ROCK II solution, 1 mM substrate solution and buffer are added to each microtube in that order, and the whole is mixed and cooled again at 4° C.
4) The microtube is placed in an incubator (30° C.) and the mixture is subjected to reaction for 15 minutes.
5) After cooling to 4° C., a 250 mM phosphoric acid solution (5 μl) is added to each microtube to stop the reaction.
6) The reaction solution (30 μl) is taken out from each microtube and spotted on a filter paper (Whatman P81) so that the reaction product (phosphorylated substrate) is adsorbed to the filter paper.
7) The filter paper is transferred to a beaker in which a 75 mM phosphoric acid solution is placed and shaken for 5 minutes so that unreacted [γ-^32P]AfP is washed out. The washing operation as such is carried out four times.
8) After that, the filter paper is dipped in ethanol to dehydrate and energy amount (radioactivity) of the reaction product adsorbed to the filter paper is measured with a liquid scintillation counter.
The IC50 value was calculated by an XL-fit (IDBS).
The Ki value is calculated by the following formula. S is an ATP concentration contained in the reaction solution while Km is a Michaelis-Menten constant. Ki=IC50/(1+S/Km)
Molecule `CC(C)(N)c1ccc(-c2ccc3[nH]ncc3c2O)cc1` [Compound 5-48, 5-[4-(1-Amino-1-methylethyl)phenyl]-4-hydroxy-1H-indazole dihydrochloride] gave an inhibition constant Ki of 0.029 µM.
On to `CCCCOc1c(-c2ccc(C(C)(C)N)cc2)ccc2[nH]ncc12` [Compound 5-55, 5-[4-(1-Amino-1-methylethyl)phenyl]-4-n-butoxy-1H-indazole dihydrochloride], for which the affinity corresponds to a Ki of 0.013 µM. This Ki is about 2.2-fold lower than that of the molecule before.
Consider `CC(C)(N)c1ccc(-c2ccc3[nH]ncc3c2CCO)cc1` [Compound 5-32, 5-[4-(1-Amino-1-methylethyl)phenyl]-4-(2-hydroxy-ethyl)-1H-indazole dihydrochloride], for which the inhibition constant Ki amounted to 0.047 µM. Compared with the last molecule, the Ki is about 3.6-fold higher.
Under `CC(C)(N)c1ccc(-c2ccc3[nH]ncc3c2)nc1` [Compound 5-3, 5-[5-(1-Amino-1-methylethyl)pyridin-2-yl]-1H-indazole trihydrochloride] stands 0.02 µM.
Under `CCCOc1c(-c2ccc(C(C)(C)N)cc2)ccc2[nH]ncc12` [Compound 5-52, 5-[4-(1-Amino-1-methylethyl)phenyl]-4-n-propoxy-1H-indazole dihydrochloride] stands 0.014 µM; under `CC(C)(N)c1ccc(-c2ccc3[nH]ncc3c2-c2cnco2)cc1` [Compound 5-66, 5-[4-(1-Amino-1-methylethyl)phenyl]-4-(oxazol-5-yl)-1H-indazole dihydrochloride], 0.0026 µM; under `CC(C)(N)c1ccc(-c2ccc3[nH]ncc3c2-c2cccnc2)cc1` [Compound 5-62, 5-[4-(1-Amino-1-methylethyl)phenyl]-4-(pyridin-3-yl)-1H-indazole trihydrochloride], 0.126 µM.
Molecule `CC(C)(N)c1ccc(-c2ccc3[nH]ncc3c2-n2cccc2)cc1` [Compound 5-39, 5-[4-(1-Amino-1-methylethyl)phenyl]-4-(pyrrol-1-yl)-1H-indazole dihydrochloride] showed a Ki of 0.012 µM.
Under `CCc1c(-c2ccc(C(C)(C)N)cn2)ccc2[nH]ncc12` [Compound 5-28, 5-[5-(1-Amino-1-methylethyl)pyridin-2-yl]-4-ethyl-1H-indazole trihydrochloride] stands 0.015 µM; under `CC(C)(N)c1ccc(-c2ccc3[nH]ncc3c2-c2cn[nH]c2)cc1` [Compound 5-64, 5-[4-(1-Amino-1-methylethyl)phenyl]-4-(pyrazol-4-yl)-1H-indazole trihydrochloride], 0.0044 µM.
The molecule `NCc1ccc(-c2ccc3[nH]ncc3c2N)cc1` [Compound 5-20, 4-Amino-5-[4-(aminomethyl)phenyl]-1H-indazole trihydrochloride] registered a Ki of 0.061 µM.
Under `CN(C)c1c(-c2ccc(C(C)(C)N)cc2)ccc2[nH]ncc12` [Compound 5-16, 5-[4-(1-Amino-1-methylethyl)phenyl]-4-dimethylamino-1H-indazole trihydrochloride] stands 0.016 µM.
Under `CC(C)(N)c1ccc(-c2ccc3[nH]ncc3c2N)cc1` [Compound 5-5, 4-Amino-5-[4-(1-amino-1-methylethyl)phenyl]-1H-indazole trihydrochloride] stands 0.044 µM; under `C=C(C)c1n[nH]c2ccc(-c3ccc(C(C)(C)N)cc3)cc12` [Compound 5-15, 5-[4-(1-Amino-1-methylethyl)phenyl]-3-(1-methyl-vinyl)-1H-indazole monotrifluoroacetate], 0.056 µM; under `CC(C)(N)c1ccc(-c2ccc3[nH]nc(C#N)c3c2)cc1` [Compound 5-13, 5-[4-(1-Amino-1-methylethyl)phenyl]-3-cyano-1H-indazole dihydrochloride], 0.103 µM.
Under `Nc1c(-c2ccc(C3(N)CCCC3)cc2)ccc2[nH]ncc12` [Compound 5-21, 4-Amino-5-[4-(1-aminocyclopentyl)phenyl]-1H-indazole dihydrochloride] stands 0.026 µM; under `CC(C)(N)c1ccc(-c2ccc3[nH]ncc3c2C2CC2)nc1` [Compound 5-29, 5-[5-(1-Amino-1-methylethyl)pyridin-2-yl]-4-cyclo-propyl-1H-indazole trihydrochloride], 0.0027 µM; under `C=CCOc1c(-c2ccc(C(C)(C)N)cc2)ccc2[nH]ncc12` [Compound 5-57, 4-Allyloxy-5-[4-(1-amino-1-methylethyl)phenyl]-1H-indazole dihydrochloride], 0.023 µM.
`CCC(N)(CC)c1ccc(-c2ccc3[nH]ncc3c2OC)nc1` [Compound 5-51, 5-[5-(1-Amino-1-ethylpropyl)pyridin-2-yl]-4-methoxy-1H-indazole trihydrochloride] yielded a Ki of 0.038 µM.
`CC(C)(N)c1ccc(-c2ccc3[nH]ncc3c2N2CCCC2)cc1` [Compound 5-42, 5-[4-(1-Amino-1-methylethyl)phenyl]-4-(pyrrolidin-1-yl)-1H-indazole trihydrochloride] gave a Ki of 0.014 µM.
The figure for `CCN(CC)c1c(-c2ccc(C(C)(C)N)cc2)ccc2[nH]ncc12` [Compound 5-31, 5-[4-(1-Amino-1-methylethyl)phenyl]-4-diethylamino-1H-indazole trihydrochloride] is 0.614 µM; for `CC(C)(N)c1ccc(-c2ccc3[nH]ncc3c2NCc2ccccc2)cc1` [Compound 5-6, 5-[4-(1-Amino-1-methylethyl)phenyl]-4-benzylamino-1H-indazole dihydrochloride] it is 0.26 µM.
The figure for `CCCOc1c(-c2ccc(C(C)(C)N)cn2)ccc2[nH]ncc12` [Compound 5-58, 5-[5-(1-Amino-1-methylethyl)pyridin-2-yl]-4-n-propoxy-1H-indazole trihydrochloride] is 0.039 µM.
For `C=Cc1c(-c2ccc(C(C)(C)N)cn2)ccc2[nH]ncc12` [Compound 5-30, 5-[5-(1-Amino-1-methylethyl)pyridin-2-yl]-4-vinyl-1H-indazole trihydrochloride], the Ki was determined as 0.017 µM.
The figure for `CC(C)Oc1c(-c2ccc(C(C)(C)N)cn2)ccc2[nH]ncc12` [Compound 5-50, 5-[5-(1-Amino-1-methylethyl)pyridin-2-yl]-4-isopropoxy-1H-indazole trihydrochloride] is 0.084 µM; for `CNc1c(-c2ccc(C(C)(C)N)cc2)ccc2[nH]ncc12` [Compound 5-7, 5-[4-(1-Amino-1-methylethyl)phenyl]-4-methylamino-1H-indazole trihydrochloride] it is 0.015 µM.
The figure for `CCOc1c(-c2ccc(C(C)(C)N)cn2)ccc2[nH]ncc12` [Compound 5-47, 5-[5-(1-Amino-1-methylethyl)pyridin-2-yl]-4-ethoxy-1H-indazole trihydrochloride] is 0.045 µM; for `CC(C)(N)c1ccc(-c2ccc3[nH]ncc3c2N2CCOCC2)cc1` [Compound 5-43, 5-[4-(1-Amino-1-methylethyl)phenyl]-4-(morpholin-4-yl)-1H-indazole trihydrochloride] it is 0.211 µM.
The figure for `CC(C)(N)c1ccc(-c2ccc3[nH]ncc3c2-c2ccno2)cc1` [Compound 5-68, 5-[4-(1-Amino-1-methylethyl)phenyl]-4-(isoxazol-5-yl)-1H-indazole dihydrochloride] is 0.0064 µM; for `CC(C)(N)c1ccc(-c2ccc3[nH]ncc3c2-c2ccccn2)cc1` [Compound 5-63, 5-[4-(1-Amino-1-methylethyl)phenyl]-4-(pyridin-2-yl)-1H-indazole trihydrochloride] it is 0.241 µM; for `CC(C)(N)c1ccc(-c2ccc3[nH]ncc3c2[N+](=O)[O-])nc1` [Compound 5-17, 5-[5-(1-Amino-1-methylethyl)pyridin-2-yl]-4-nitro-1H-indazole dihydrochloride] it is 0.199 µM.

Source of the values: US8232308B2, “Methods for treating a disease in which Rho kinase is involved” (UBE Industries, Ltd., priority 2003, dated 2012).
